From US12275731B2, “Azaindole inhibitors of wild-type and mutant forms of LRRK2” (DANA-FARBER CANCER INSTITUTE, INC., priority 2018, dated 2025) come the findings set out here.

Assay in all cases: KinomeScan profiling
Common to all, as to type: binding

The target of one assay is T1, ABL1-nonphosphorylated (Homo sapiens, UniProt P00519).
T1 construct: purchased KinomeScan®
Particulars: read-out: % control. The method, boiled down: (§1)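 Single-point competition binding screen: 1 μM, DMSO, 468 kinases. Results reported as % control from RLU, normalised to DMSO and positive-control wells. Activity threshold: <35% control.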

The next assay has as its target T2, ADCK4 (Homo sapiens, UniProt Q96D53).
T2 construct: purchased KinomeScan®
T2 sequence (Q96D53 1-544): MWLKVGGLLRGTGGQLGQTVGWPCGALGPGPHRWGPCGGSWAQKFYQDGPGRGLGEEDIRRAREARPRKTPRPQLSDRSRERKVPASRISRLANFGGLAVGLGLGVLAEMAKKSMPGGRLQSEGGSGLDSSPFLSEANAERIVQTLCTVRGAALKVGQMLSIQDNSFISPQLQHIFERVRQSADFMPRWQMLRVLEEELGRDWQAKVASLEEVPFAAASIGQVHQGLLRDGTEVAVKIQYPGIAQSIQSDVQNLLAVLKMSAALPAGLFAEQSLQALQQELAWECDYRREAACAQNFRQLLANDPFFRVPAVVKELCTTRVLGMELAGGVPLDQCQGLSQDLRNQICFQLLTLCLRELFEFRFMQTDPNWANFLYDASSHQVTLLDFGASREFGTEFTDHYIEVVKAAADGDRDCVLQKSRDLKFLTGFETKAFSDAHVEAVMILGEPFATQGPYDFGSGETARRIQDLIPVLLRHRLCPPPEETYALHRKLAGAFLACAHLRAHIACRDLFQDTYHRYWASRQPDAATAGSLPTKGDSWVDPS
Particulars: ADCK4, 1 μM; read-out: % control. In short, it runs like this: as §1

The next assay deals with T3, AURKB (Homo sapiens, UniProt Q96GD4).
T3 construct: purchased KinomeScan®
T3 sequence (Q96GD4 whole entry): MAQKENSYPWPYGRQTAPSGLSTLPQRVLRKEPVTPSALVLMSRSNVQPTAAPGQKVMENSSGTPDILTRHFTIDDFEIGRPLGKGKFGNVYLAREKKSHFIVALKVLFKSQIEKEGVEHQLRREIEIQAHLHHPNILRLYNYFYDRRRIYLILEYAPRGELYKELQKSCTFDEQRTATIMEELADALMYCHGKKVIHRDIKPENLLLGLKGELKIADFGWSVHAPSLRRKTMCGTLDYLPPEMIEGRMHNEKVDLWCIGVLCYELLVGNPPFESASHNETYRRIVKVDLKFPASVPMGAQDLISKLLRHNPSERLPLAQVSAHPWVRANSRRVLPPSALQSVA
Particulars: read-out: % control. The method, boiled down: as §1

The target of another assay is T4, BRAF (Homo sapiens, UniProt P15056).
T4 construct: purchased KinomeScan®
T4 sequence (P15056 whole entry): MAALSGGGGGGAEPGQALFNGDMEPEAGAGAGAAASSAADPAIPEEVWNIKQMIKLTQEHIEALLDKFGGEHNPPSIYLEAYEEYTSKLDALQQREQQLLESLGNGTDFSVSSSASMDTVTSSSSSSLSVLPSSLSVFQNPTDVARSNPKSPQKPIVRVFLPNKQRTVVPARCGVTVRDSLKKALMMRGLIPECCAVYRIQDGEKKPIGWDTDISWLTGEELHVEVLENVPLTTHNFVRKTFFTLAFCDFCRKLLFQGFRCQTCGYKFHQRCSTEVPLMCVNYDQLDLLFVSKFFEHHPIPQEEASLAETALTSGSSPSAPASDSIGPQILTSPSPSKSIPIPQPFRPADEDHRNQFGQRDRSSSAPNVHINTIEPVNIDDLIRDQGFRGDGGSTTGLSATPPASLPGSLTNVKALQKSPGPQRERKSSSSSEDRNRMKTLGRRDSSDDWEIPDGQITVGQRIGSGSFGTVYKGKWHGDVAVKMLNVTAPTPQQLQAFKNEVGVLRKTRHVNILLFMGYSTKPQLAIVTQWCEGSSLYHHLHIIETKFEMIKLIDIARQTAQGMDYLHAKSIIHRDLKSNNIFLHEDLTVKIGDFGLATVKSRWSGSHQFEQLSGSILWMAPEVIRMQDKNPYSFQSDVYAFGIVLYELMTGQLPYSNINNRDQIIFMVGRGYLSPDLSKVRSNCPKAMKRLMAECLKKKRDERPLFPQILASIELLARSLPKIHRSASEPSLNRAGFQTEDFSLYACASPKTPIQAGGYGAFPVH
Particulars: read-out: % control. In short, it runs like this: as §1

The target in a further assay is CSNK2A1 (Homo sapiens, UniProt P68400). Particulars: CSNK2A1, 1 μM; read-out: % control. The method, boiled down:
as §1

In the next assay the target is DYRK1B (Homo sapiens, UniProt Q9Y463). Particulars: read-out: % control. In short, it runs like this: as §1
DYRK1B, sequence (Q9Y463 whole entry): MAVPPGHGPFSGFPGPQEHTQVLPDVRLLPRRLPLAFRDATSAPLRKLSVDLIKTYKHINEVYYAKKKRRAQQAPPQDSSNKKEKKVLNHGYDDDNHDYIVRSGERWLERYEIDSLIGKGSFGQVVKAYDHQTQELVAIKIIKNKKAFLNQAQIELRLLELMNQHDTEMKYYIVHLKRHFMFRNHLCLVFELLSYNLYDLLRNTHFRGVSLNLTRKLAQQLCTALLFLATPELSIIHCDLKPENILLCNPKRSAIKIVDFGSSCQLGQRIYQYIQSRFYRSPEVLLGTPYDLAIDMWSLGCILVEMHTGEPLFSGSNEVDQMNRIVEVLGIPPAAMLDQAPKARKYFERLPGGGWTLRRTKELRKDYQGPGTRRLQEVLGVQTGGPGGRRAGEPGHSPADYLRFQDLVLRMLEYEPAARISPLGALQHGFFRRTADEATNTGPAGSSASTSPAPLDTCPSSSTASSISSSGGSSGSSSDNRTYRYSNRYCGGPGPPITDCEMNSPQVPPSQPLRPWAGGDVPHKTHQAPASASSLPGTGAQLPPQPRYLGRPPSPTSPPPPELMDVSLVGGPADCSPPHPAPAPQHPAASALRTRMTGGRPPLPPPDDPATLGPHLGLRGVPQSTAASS
A further assay deals with EPHA4 (Homo sapiens, UniProt P54764). Particulars: EPHA4, 1 μM; read-out: % control. In short, it runs like this:
as §1

In another assay the target is T5, MEK4 (Homo sapiens, UniProt P45985).
T5 sequence (P45985 1-399): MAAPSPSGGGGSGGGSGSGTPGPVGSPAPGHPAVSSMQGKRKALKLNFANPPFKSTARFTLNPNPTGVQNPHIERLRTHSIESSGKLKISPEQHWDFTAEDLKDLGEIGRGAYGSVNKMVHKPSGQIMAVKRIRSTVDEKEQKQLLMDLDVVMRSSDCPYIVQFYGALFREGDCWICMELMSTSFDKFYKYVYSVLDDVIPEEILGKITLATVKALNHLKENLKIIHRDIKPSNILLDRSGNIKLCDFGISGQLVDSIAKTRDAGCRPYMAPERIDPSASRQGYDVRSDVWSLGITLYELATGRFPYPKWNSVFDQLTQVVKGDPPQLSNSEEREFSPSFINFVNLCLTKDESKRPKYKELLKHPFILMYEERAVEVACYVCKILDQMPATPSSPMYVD
Particulars: MEK4, 1 μM; read-out: % control. The method, boiled down:
as §1

The target in the next assay is PRKCH (Homo sapiens, UniProt P24723). Particulars: read-out: % control. The method, boiled down:
as §1

A further assay addresses T6, RIOK3 (Homo sapiens, UniProt O14730).
T6 sequence (O14730 1-519): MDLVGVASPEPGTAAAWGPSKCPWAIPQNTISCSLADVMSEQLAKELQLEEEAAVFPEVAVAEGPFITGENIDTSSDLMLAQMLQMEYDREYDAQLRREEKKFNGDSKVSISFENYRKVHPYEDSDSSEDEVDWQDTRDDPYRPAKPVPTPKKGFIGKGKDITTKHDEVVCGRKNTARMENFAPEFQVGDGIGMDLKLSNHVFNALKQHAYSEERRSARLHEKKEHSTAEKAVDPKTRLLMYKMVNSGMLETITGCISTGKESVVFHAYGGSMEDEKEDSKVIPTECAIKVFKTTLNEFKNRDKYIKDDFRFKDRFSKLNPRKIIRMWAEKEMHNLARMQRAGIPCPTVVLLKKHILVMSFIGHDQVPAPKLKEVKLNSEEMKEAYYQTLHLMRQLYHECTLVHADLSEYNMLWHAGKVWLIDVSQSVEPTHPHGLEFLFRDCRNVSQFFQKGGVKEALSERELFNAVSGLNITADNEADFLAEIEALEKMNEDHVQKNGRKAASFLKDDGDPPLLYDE
Particulars: RIOK3, 1 μM; read-out: % control. The method, boiled down: as §1

A further assay deals with ROCK2 (Homo sapiens, UniProt O75116). Particulars: ROCK2, 1 μM; read-out: % control. In short, it runs like this:
as §1

A further assay addresses T7, SGK (Homo sapiens, UniProt O00141).
T7 construct: purchased KinomeScan® (panel service)
T7 sequence (O00141 1-431): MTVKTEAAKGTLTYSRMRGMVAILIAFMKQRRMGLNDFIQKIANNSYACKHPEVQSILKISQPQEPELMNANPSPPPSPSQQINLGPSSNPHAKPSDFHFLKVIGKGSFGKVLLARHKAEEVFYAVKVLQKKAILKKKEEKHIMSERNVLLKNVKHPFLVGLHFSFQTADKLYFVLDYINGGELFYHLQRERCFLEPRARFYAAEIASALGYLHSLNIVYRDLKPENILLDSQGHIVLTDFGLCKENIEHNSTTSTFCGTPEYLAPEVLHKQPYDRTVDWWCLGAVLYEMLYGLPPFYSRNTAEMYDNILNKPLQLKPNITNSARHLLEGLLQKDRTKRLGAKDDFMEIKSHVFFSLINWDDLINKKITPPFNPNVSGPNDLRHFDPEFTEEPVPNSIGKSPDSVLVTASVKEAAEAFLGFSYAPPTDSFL
Particulars: read-out: % control. The method, boiled down:
as §1

Another assay deals with T8, SRPK2 (Homo sapiens, UniProt P78362).
T8 construct: purchased KinomeScan® (panel service)
T8 sequence (P78362 whole entry): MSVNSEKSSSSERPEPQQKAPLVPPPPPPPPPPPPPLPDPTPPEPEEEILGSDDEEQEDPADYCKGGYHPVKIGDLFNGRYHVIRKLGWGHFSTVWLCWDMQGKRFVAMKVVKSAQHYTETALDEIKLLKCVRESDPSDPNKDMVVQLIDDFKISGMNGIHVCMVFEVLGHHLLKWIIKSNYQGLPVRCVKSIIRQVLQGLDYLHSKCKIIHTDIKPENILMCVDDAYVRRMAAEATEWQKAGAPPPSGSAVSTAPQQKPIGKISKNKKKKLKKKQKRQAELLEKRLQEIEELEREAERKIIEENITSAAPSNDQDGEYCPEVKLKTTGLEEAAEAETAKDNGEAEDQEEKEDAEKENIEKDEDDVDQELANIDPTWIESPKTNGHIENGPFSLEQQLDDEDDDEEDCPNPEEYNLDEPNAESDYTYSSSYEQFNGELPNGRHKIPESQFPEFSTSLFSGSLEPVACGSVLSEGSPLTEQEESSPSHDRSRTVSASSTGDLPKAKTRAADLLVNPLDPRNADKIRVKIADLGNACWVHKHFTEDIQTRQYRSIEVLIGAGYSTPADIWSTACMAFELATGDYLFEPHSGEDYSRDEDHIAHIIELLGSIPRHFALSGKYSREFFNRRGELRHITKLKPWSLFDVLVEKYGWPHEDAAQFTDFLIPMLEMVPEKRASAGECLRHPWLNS
Particulars: SRPK2, 1 μM; read-out: % control. In short, it runs like this: as §1

T1 sequence (P00519 whole entry): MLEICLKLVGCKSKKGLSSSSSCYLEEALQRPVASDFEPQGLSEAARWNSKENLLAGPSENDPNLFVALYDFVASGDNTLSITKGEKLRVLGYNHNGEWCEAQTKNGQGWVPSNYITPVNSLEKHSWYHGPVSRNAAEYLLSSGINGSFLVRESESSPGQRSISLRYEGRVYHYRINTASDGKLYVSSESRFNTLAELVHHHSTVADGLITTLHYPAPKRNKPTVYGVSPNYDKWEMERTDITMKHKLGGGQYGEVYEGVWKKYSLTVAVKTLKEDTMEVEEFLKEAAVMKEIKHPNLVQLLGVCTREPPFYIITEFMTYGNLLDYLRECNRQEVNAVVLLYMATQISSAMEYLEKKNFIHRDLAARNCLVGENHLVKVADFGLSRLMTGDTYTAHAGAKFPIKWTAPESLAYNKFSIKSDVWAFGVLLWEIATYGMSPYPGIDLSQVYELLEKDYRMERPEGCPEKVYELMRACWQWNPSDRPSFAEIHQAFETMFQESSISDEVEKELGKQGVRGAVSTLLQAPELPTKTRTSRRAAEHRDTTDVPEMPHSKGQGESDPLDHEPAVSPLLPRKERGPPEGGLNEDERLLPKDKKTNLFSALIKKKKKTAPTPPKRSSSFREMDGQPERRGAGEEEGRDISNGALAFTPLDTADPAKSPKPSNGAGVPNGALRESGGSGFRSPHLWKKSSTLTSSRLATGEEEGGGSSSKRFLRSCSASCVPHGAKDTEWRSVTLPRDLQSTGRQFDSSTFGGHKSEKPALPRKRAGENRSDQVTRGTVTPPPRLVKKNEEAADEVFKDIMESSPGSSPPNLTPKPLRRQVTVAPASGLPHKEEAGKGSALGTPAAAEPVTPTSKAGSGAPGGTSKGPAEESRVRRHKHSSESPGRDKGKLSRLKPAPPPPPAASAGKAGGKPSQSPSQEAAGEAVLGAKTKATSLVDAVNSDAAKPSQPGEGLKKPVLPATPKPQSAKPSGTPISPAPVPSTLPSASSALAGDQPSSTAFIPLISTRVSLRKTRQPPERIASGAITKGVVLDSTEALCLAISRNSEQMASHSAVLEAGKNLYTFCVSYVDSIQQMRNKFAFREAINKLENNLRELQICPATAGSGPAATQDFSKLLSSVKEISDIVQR
CSNK2A1, sequence (P68400 whole entry): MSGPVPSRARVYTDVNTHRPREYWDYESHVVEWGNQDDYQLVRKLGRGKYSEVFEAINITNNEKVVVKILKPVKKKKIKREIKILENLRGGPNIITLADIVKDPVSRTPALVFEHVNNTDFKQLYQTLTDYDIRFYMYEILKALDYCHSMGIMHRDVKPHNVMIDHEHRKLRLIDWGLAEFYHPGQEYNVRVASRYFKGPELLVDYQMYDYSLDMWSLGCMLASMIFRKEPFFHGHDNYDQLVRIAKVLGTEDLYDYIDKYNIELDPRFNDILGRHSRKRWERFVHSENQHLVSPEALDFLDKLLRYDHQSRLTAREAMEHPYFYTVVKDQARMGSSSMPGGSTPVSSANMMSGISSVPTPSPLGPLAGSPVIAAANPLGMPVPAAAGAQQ
EPHA4, sequence (P54764 20-986): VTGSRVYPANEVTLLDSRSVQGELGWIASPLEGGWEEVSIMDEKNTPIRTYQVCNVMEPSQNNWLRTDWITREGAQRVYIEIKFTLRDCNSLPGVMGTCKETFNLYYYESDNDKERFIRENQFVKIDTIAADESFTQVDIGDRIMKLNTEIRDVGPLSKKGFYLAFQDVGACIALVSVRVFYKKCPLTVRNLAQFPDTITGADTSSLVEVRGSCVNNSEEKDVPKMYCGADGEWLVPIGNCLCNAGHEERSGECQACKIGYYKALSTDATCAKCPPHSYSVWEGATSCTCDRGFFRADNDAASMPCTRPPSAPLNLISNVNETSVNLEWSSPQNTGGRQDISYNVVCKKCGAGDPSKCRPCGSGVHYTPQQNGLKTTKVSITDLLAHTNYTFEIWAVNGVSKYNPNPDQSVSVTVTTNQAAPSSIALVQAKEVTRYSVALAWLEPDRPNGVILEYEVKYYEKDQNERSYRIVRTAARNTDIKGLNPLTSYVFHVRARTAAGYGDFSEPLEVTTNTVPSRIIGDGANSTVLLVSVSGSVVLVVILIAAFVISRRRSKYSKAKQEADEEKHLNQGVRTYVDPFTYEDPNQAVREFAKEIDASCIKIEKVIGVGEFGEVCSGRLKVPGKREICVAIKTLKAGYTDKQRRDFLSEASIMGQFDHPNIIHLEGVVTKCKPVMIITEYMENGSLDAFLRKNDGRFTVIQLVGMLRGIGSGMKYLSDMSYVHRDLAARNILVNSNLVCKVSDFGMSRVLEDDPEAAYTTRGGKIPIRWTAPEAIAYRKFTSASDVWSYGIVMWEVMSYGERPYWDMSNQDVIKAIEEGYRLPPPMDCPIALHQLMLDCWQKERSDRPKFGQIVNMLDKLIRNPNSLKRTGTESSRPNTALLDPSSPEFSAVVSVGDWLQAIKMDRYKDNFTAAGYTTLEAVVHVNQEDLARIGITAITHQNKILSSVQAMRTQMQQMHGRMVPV

Take `CNc1c(-c2cnn([C@H]3CCN(C(C)=O)C[C@@H]3F)c2)cnc2[nH]cc(Cl)c12` [Compound 77, 1-((3S,4S)-4-(4-(3-chloro-4-(methylamino)-1H-pyrrolo[2,3-b]pyridin-5-yl)-1H-pyrazol-1-yl)-3-fluoropiperidin-1-yl)ethan-1-one]: the remaining binding at 1 µM at ABL1-nonphosphorylated is 54%; on ADCK4, 100%; on AURKB it was 24%; at BRAF, 91%; at CSNK2A1, 75%; on DYRK1B it was 100%. The remaining binding at 1 µM at EPHA4 was determined as 96%; at MEK4, 45%; on PRKCH it was 83%; on RIOK3, 24%; on ROCK2, 8.9%; on SGK, 17%. For the same molecule, the remaining binding at 1 µM on SRPK2 was 12%.
For `CNc1c(-c2ccc(C(=O)N3CCC(N4CCOCC4)CC3)cc2)cnc2[nH]cc(Cl)c12` [Compound 96, (4-(3-chloro-4-(methylamino)-1H-pyrrolo[2,3-b]pyridin-5-yl)phenyl)(4-morpholinopiperidin-1-yl)methanone], the remaining binding at 1 µM at ABL1-nonphosphorylated came out at 63%; on ADCK4, 100%; on AURKB, 53%; at BRAF, 90%; at CSNK2A1, 72%; on DYRK1B, 100%. Further, the remaining binding at 1 µM came out at 100% on EPHA4; 7.3% on MEK4; 92% on PRKCH; 36% on RIOK3; 1.4% on ROCK2; 7.3% at SGK. Further, the remaining binding at 1 µM at SRPK2 was 16%.
On to `O=C(c1ccc(-c2cnc3[nH]cc(Cl)c3c2NC2CCCC2)cc1)N1CCC(N2CCOCC2)CC1` [Compound 101, (4-(3-chloro-4-(cyclopentylamino)-1H-pyrrolo[2,3-b]pyridin-5-yl)phenyl)(4-morpholinopiperidin-1-yl)methanone], for which the remaining binding at 1 µM at ABL1-nonphosphorylated is 98%; on ADCK4, 100%; on AURKB, 100%; on BRAF, 84%; on CSNK2A1 it was 100%; on DYRK1B, 89%. The remaining binding at 1 µM on EPHA4 is 88%; on MEK4, 28%; on PRKCH, 73%; on RIOK3, 50%; on ROCK2 it was 81%; at SGK, 86%. Besides, at SRPK2, the remaining binding at 1 µM was 60%.
